According to patent publication US7629379B2, “Substituted phosphonate fluorescent sensors and use thereof” (Queen Mary & Westfield College, priority 2003, dated 2009):
Where a name gives a salt, the structure may show the parent alone.

How the values were obtained:
[1] = tested on: Fibrosarcoma cells
[2] = tested on: Zn^+2 in fibrosarcoma cells; test: Imaging of Zn^+2 in fibrosarcoma cells; assay type: cell-based; conditions: added to any of the wells with phosphonate and zinc
[3] = tested on: Slices of rat brain

With `CCOP(=O)(COc1ccc2c(c1)[nH]c1ccccc12)OCC` [Example 8, diethyl-2-carbazolyloxymethylphosphonate] the melting point was 159 °C and the uptake into cells [1] was “taken up in the cytoplasm within the fibrosarcoma cells”.
`O=P(O)(O)COc1cccc2cccnc12` (as salt: salt) [Example 2, 8-quinolyloxy methylphosphonic acid] showed a melting point of 285 to 288 °C.
With `c1ccc(CN(CCN(Cc2ccccn2)Cc2ccccn2)Cc2ccccn2)nc1` [TPEN, N,N,N′,N′-tetrakis(2-pyridylmethyl)ethylenediamine] the “effect of excess chelator on the cell fluorescence” value [2] was “very significant quenching of the fluorescence”.
For `O=P(O)(O)COc1ccc2c(c1)[nH]c1ccccc12` [Example 9, 2-carbazolyloxymethyl phosphonic acid], the melting point was 291 °C.
In the case of `O=P([O-])([O-])Cn1c2ccccc2c2ccccc21.[Na+].[Na+]` [di sodium N-carbazolylmethylphosphonate], the uptake into cells [1] was “taken up in the cytoplasm within the fibrosarcoma cells” and the “penetration of brain cell types and regions” value [3] was “went into the endothelial and neuronal cells”.
For `Cc1cc(=O)oc2cc(OCP(=O)(O)O)ccc12` [di-sodium salt of Example 5, 4-methylcoumarin 7-oxymethylphosphonic acid], the uptake into cells [1] was “taken up in the cytoplasm within the fibrosarcoma cells”.
